Where two headings read alike, the source gives them in different places.

As usually defined, the IC50 is the concentration that gives 50% inhibition. In general, EC50 refers to the concentration at which the effect is half-maximal. Broadly, the Emax is the size of the effect at its maximum, as opposed to the concentration needed.

The target of one experiment is T1, human κ receptors (Homo sapiens, UniProt P41145).
T1 construct: expressed in transfected cells; host or cells: human 293S cells, geneticin-selected
Description: Binding assay, cloned human κ receptor membranes (125I-DPDYN displacement).

The target in experiment [1] is T2, human δ receptors (Homo sapiens, UniProt P41143).
T2 construct: expressed in transfected cells
Nature of the experiment: Binding assay, cloned human δ receptor membranes (125I-Deltorphin II displacement).

The target of experiment [2] is T2, human δ receptors. Description: GTP[γ]35S binding functional assay, HEK-293S membranes expressing cloned human δ receptors. To be noted: for Emax: relative to standard δ agonist SNC80. Type of experiment: biochemical. The protocol: (§1) The agonist activity of the compounds is measured by determining the degree to which the compounds receptor complex activates the binding of GTP to G-proteins to which the receptors are coupled. In the GTP binding assay, GTP[γ]^35S is combined with test compounds and membranes from HEK-293S cells expressing the cloned human opioid receptors or from homogenised rat or mouse brain. Agonists stimulate GTP[γ]^35S binding in these membranes. The EC50 and Emax values of compounds are determined from dose-response curves. Right shifts of the dose response curve by the delta antagonist naltrindole are performed to verify that agonist activity is mediated through delta receptors. For human δ receptor functional assays, EC50 (low) is measured when the human δ receptors used in the assay were expressed at lower levels in comparison with those used in determining EC50 (high). The Emax values were determined in relation to the standard δ agonist SNC80, i.e., higher than 100% is a compound that have better efficacy than SNC80.
(§2) Rat brain membranes are thawed at 37° C., passed 3 times through a 25-gauge blunt-end needle and diluted in the GTPγS binding (50 mM Hepes, 20 mM NaOH, 100 mM NaCl, 1 mM EDTA, 5 mM MgCl2, pH 7.4, Add fresh: 1 mM DTT, 0.1% BSA). 120 μM GDP final is added membranes dilutions. The EC50 and Emax of compounds are evaluated from 10-point dose-response curves done in 300 μl with the appropriate amount of membrane protein (20 μg/well) and 100000-130000 dpm of GTPγ^35S per well (0.11-0.14 nM). The basal and maximal stimulated binding are determined in absence and presence of 3 μM SNC-80. The assay performed on HEK 293s cells stably expressing cloned Delta receptors is done in a slightly different buffer (50 mM Hepes, 20 mM NaOH, 200 mM NaCl, 1 mM EDTA, 5 mM MgCl2, pH 7.4, Add fresh: 0.5% BSA, no DTT) and with a 3 μM final conc. of GDP.
In general terms: GTPγS is a poorly hydrolysed GTP analogue; its binding reports G protein activation.

A further experiment has as its target T3, human μ receptors (Homo sapiens, UniProt P35372).
T3 construct: expressed in transfected cells; host or cells: human 293S cells, geneticin-selected
Description: Binding assay, cloned human μ receptor membranes (125I-FK33824 displacement).

Experiment [3] has as its target T4, δ receptors in rat brain membranes (Rattus norvegicus, UniProt P33533).
T4 construct: membranes from HEK-293S cells expressing the cloned human opioid receptors or from homogenised rat or mouse brain; from tissue; host or cells: rat brain homogenate membranes
Description: Rat brain GTP[γ]35S binding functional assay. The following applies: for Emax: Table 1, rat brain membranes, relative to SNC80. Type of experiment: biochemical. Here is the method:
Rat brains are weighed and rinsed in ice-cold PBS (containing 2.5 mM EDTA, pH 7.4). The brains are homogenized with a polytron for 30 sec (rat) in ice-cold lysis buffer (50 mM Tris, pH 7.0, 2.5 mM EDTA, with phenylmethylsulfonyl fluoride added just prior use to […] from a 0.5M stock in DMSO:ethanol).
as §1, §2

[4] abbreviates: Table 1, higher receptor expression, read-out: Human δ % EMax (high).
Setting [5] is: Table 2, read-out: Human κ IC50.
Setting [6] is: Table 2, lower receptor expression, read-out: Human δ % EMax (low).

T4 sequence (P33533 whole entry): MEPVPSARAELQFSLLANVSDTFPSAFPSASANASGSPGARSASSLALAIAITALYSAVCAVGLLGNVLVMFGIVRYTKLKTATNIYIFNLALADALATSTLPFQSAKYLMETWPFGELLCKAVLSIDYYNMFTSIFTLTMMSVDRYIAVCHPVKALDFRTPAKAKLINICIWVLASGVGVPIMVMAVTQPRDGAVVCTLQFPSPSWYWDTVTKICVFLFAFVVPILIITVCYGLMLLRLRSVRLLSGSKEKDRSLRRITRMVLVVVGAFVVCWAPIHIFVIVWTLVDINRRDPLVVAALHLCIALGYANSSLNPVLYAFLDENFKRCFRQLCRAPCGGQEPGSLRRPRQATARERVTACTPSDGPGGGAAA
T1 sequence (P41145 whole entry): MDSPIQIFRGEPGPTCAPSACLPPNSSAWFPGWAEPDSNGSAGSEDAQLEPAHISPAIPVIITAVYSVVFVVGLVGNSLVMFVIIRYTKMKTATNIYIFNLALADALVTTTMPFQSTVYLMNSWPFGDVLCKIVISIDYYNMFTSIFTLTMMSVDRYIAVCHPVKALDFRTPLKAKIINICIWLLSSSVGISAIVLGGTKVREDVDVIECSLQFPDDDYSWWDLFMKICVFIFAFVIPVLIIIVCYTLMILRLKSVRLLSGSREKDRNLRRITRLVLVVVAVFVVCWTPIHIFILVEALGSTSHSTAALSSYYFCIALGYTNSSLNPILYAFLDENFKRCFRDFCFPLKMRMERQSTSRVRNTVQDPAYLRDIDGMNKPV
T2 sequence (P41143 whole entry): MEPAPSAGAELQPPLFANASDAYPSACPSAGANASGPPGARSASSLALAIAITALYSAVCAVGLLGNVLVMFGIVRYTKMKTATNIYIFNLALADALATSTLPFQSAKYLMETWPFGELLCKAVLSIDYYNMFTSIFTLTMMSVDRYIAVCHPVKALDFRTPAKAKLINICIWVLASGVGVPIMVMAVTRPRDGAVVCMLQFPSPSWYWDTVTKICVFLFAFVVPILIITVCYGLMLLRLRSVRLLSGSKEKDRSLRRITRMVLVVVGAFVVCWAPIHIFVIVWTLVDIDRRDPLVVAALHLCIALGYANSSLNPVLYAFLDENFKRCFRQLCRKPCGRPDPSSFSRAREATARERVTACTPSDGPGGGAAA
T3 sequence (P35372 whole entry): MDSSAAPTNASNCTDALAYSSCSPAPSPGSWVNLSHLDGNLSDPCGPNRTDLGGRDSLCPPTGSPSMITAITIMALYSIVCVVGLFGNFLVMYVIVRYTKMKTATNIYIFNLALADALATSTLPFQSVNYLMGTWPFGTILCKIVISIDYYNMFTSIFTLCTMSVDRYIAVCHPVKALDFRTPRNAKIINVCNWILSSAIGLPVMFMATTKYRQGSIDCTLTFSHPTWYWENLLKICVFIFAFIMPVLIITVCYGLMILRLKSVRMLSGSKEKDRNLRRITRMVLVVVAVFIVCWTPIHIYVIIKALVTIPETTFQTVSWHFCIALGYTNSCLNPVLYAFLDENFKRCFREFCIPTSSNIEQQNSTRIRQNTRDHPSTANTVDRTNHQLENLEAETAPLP

Take `CCN(CC)C(=O)c1ccc(C(=C2CCN(Cc3ccsc3)CC2)c2cccc(NC(C)=O)c2)cc1` [Compound 4, 4-[[3-(acetylamino)phenyl][1-(3-thienylmethyl)-4-piperidinylidene]methyl]-N,N-diethyl-benzamide]: the IC50 on human κ receptors fell in the range of 2470 to 8000 nM; on human δ receptors [1], 0.34 to 0.59 nM; at human μ receptors, 344 to 368 nM. Also, the EC50 on human δ receptors [2] lay in the range of 1.46 to 2.65 nM; in experiment [3], 7.2 to 15.8 nM. The results for the Emax (on human δ receptors [2] (setting [4]); in experiment [3]) were 95 to 98% and 126 to 137%, respectively.
With `CCN(CC)C(=O)c1ccc(C(=C2CCN(Cc3ccco3)CC2)c2cccc(NC(C)=O)c2)cc1` [Compound 2, 4-{[3-(acetylamino)phenyl][1-(2-furylmethyl)piperidin-4-ylidene]methyl}-N,N-diethylbenzamide], the half-maximal inhibitory concentration (IC50) is 5830 to 9070 nM at human κ receptors (setting [5]) and 0.19 to 1.49 nM at human δ receptors [1]. Further, the Emax at human δ receptors [2] (setting [6]) lay within 80 to 112%.
On to `CCN(CC)C(=O)c1ccc(C(=C2CCN(Cc3cncs3)CC2)c2cccc(NC(C)=O)c2)cc1` [Compound 9, 4-{[3-(acetylamino)phenyl][1-(1,3-thiazol-5-ylmethyl)piperidin-4-ylidene]methyl}-N,N-diethylbenzamide], for which the IC50 on human κ receptors (setting [5]) was 5830 to 9070 nM; on human δ receptors [1], 0.19 to 1.49 nM. Besides, at human δ receptors [2] (setting [6]), the Emax lay within 80 to 112%.
The matching figures for `CCN(CC)C(=O)c1ccc(C(=C2CCN(Cc3ccccn3)CC2)c2cccc(NC(C)=O)c2)cc1` [Compound 7, 4-{[3-(acetylamino)phenyl][1-(pyridin-2-ylmethyl)piperidin-4-ylidene]methyl}-N,N-diethylbenzamide]: 5830 to 9070 nM, 0.19 to 1.49 nM and 80 to 112%.
`CCN(CC)C(=O)c1ccc(C(=C2CCN(Cc3cccnc3)CC2)c2cccc(NC(C)=O)c2)cc1` [Compound 5, 4-[[3-(acetylamino)phenyl][1-(3-pyridinylmethyl)-4-piperidinylidene]methyl]-N,N-diethyl-benzamide]: the IC50 at human κ receptors lay in the range of 5830 to 9070 nM; at human δ receptors [1], 0.19 to 1.49 nM. Moreover, the Emax at human δ receptors [2] (setting [6]) fell in the range of 80 to 112%.
Consider `CCN(CC)C(=O)c1ccc(C(=C2CCN(Cc3cccs3)CC2)c2cccc(NC(C)=O)c2)cc1` [Compound 1, 4-{[3-(acetylamino)phenyl][1-(thien-2-ylmethyl)piperidin-4-ylidene]methyl}-N,N-diethylbenzamide], for which the IC50 on human κ receptors (setting [5]) lay in the range of 5830 to 9070 nM; at human δ receptors [1], 0.19 to 1.49 nM. In addition, the Emax at human δ receptors [2] (setting [6]) lay in the range of 80 to 112%.
With `CCN(CC)C(=O)c1ccc(C(=C2CCN(Cc3ccncc3)CC2)c2cccc(NC(C)=O)c2)cc1` [Compound 6, 4-[[-3-(acetylamino)phenyl][1-(4-pyridinylmethyl)-4-piperidinylidene]methyl]-N,N-diethyl-benzamide], the results for the IC50 on human κ receptors and on human δ receptors [1] were 5830 to 9070 nM and 0.19 to 1.49 nM, respectively. For the same molecule, the Emax on human δ receptors [2] (setting [6]) fell in the range of 80 to 112%.
With `CCN(CC)C(=O)c1ccc(C(=C2CCN(Cc3ccccc3)CC2)c2cccc(NC(C)=O)c2)cc1` [Compound 3, 4-[[3-(acetylamino)phenyl][1-(phenylmethyl)-4-piperidinylidene]methyl]-N,N-diethyl-benzamide], the 50% inhibitory concentration (IC50) was in the range of 2470 to 8000 nM on human κ receptors, 0.34 to 0.59 nM at human δ receptors [1] and 344 to 368 nM on human μ receptors. Moreover, the results for the EC50 (on human δ receptors [2]; in experiment [3]) were 1.46 to 2.65 nM and 7.2 to 15.8 nM, respectively. Further, the Emax on human δ receptors [2] (setting [4]) lay within 95 to 98%; in experiment [3] it was 126 to 137%.
For `CCN(CC)C(=O)c1ccc(C(=C2CCN(Cc3cscn3)CC2)c2cccc(NC(C)=O)c2)cc1` [Compound 8, 4-{[3-(acetylamino)phenyl][1-(1,3-thiazol-4-ylmethel)piperidin-4-ylidene]methyl}-N,N-diethylbenzamide], the IC50 lay within 5830 to 9070 nM at human κ receptors (setting [5]) and 0.19 to 1.49 nM on human δ receptors [1]. Further, the Emax on human δ receptors [2] (setting [6]) lay in the range of 80 to 112%.

(Values after patent US20060154964A1, “Diarylmethylidene piperidine derivatives, preparations thereof and uses thereof” (AstraZeneca AB, priority 2003, published 2006).)
